Experiments:
Assay in all cases: biochemical
Parameters in all cases: KINOMEscan active-site competition binding, percent of control (100 = no competition)
Conditions in all cases: competition binding, percent control
KIT(V559D) = KIT(V559D) (Homo sapiens, UniProt P10721, V559D)
[1] = target: T1, ABL1(Y253F)-phosphorylated (Homo sapiens, UniProt P00519, Y253F)
T1 construct: phosphorylated

CSNK2A1 = CSNK2A1 (Homo sapiens, UniProt P68400)
CDC2L5 = target: T2, CDC2L5 (Homo sapiens, UniProt Q14004)
T2 construct: gene CDK13

[2] = target: T3, ABL1(F317L)-nonphosphorylated (Homo sapiens, UniProt P00519, F317L)
T3 construct: nonphosphorylated

FYN = FYN (Homo sapiens, UniProt P06241)
ABL1-phosphorylated = target: T4, ABL1-phosphorylated (Homo sapiens, UniProt P00519)
T4 construct: phosphorylated

[3] = target: EGFR(L747-S752del, P753S) (Homo sapiens, UniProt P00533, DEL747-752/P753S)
WEE1 = WEE1 (Homo sapiens, UniProt P30291)
CDK4-cyclinD1 = target: T5, CDK4-cyclinD1 (Homo sapiens, UniProt P11802)
T5 construct: cyclinD1

CLK1 = CLK1 (Homo sapiens, UniProt P49759)
ACVR1 = ACVR1 (Homo sapiens, UniProt Q04771)
MEK4 = target: T6, MEK4 (Homo sapiens, UniProt P45985)
T6 construct: gene MAP2K4

PLK4 = PLK4 (Homo sapiens, UniProt O00444)
SGK3 = SGK3 (Homo sapiens, UniProt Q96BR1)
EGFR(L747-T751del,Sins) = EGFR(L747-T751del,Sins) (Homo sapiens, UniProt P00533, DEL747-750/T751S)
NDR2 = target: T7, NDR2 (Homo sapiens, UniProt Q9Y2H1)
T7 construct: gene STK38L

YANK1 = target: T8, YANK1 (Homo sapiens, UniProt Q8WU08)
T8 construct: gene STK32A

BRSK2 = BRSK2 (Homo sapiens, UniProt Q8IWQ3)
PFPK5(P.falciparum) = target: T9, PFPK5(P.falciparum) (Plasmodium falciparum, UniProt P61075)
T9 construct: gene CRK2

TTK = TTK (Homo sapiens, UniProt P33981)
CTK = target: T10, CTK (Homo sapiens, UniProt P42679)
T10 construct: gene MATK
T10 sequence (P42679 whole entry): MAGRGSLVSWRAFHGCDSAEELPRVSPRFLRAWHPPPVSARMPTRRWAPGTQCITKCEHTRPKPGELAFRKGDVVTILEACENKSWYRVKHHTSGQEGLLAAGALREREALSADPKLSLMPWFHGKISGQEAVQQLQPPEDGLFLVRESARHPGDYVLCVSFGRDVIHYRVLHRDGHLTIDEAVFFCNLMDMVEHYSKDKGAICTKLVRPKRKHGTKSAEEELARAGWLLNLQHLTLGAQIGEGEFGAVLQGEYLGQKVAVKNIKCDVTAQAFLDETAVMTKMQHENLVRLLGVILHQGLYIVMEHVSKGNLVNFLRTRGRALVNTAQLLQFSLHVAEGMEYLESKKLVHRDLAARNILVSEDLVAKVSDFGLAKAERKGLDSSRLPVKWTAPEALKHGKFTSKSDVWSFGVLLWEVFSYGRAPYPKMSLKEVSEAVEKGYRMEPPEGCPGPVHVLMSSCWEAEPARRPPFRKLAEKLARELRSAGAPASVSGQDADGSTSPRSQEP

T6 sequence (P45985 whole entry): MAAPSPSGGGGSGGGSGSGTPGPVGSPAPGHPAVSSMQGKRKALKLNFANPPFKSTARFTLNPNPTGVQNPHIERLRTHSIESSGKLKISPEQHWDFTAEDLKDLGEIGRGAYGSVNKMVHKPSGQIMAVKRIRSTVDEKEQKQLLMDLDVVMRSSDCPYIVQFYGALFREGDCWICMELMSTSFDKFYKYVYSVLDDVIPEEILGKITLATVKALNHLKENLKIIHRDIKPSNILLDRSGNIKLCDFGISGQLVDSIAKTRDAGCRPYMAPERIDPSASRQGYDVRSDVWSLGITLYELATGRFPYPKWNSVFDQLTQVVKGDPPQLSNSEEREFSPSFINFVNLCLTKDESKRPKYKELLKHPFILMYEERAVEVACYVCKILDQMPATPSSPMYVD
Sequence of CSNK2A1 (P68400 whole entry): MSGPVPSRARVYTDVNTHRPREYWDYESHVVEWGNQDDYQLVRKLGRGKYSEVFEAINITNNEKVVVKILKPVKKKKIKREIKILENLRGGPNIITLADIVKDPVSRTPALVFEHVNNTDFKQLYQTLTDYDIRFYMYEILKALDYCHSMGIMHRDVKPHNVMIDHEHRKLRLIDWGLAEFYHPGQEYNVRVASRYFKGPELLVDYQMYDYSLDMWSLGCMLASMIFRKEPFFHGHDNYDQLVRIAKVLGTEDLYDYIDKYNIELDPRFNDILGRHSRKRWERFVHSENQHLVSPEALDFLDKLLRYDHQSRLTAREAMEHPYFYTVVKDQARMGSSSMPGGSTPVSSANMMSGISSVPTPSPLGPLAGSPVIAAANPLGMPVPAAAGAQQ
Sequence of ACVR1 (Q04771 whole entry): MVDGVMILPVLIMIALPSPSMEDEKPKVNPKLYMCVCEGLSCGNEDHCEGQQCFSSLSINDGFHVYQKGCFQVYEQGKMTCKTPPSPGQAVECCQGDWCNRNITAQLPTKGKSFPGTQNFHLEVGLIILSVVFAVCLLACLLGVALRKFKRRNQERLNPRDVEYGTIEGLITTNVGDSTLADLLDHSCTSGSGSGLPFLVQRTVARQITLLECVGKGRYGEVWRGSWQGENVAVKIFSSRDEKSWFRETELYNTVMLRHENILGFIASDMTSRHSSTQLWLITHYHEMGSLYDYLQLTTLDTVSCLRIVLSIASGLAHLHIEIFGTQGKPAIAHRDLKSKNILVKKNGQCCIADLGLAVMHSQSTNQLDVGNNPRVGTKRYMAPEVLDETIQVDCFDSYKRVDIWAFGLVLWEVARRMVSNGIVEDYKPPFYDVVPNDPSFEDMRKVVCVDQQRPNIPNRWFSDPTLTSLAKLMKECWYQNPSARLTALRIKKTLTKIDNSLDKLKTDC
T7 sequence (Q9Y2H1 whole entry): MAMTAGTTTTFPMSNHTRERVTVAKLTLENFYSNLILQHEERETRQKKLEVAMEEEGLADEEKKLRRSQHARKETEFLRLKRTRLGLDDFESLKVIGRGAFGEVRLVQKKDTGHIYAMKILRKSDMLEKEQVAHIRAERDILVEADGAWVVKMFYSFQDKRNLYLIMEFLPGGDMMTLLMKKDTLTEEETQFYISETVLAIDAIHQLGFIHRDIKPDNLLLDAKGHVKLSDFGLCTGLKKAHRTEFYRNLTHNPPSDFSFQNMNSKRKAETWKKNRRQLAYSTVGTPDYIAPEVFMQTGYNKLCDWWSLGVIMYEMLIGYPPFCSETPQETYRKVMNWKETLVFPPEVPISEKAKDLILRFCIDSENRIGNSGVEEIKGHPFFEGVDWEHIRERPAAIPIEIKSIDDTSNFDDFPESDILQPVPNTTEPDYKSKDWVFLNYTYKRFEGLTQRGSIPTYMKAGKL
T5 sequence (P11802 whole entry): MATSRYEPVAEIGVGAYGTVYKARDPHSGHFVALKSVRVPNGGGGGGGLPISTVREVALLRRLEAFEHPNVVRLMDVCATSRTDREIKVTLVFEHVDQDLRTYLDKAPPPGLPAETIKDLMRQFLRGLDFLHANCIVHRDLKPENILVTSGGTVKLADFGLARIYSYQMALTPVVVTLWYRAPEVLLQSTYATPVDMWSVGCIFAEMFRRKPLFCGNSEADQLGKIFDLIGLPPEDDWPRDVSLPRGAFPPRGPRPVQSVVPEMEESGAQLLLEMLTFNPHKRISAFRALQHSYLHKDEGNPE
T5 sequence (P24385 whole entry partner): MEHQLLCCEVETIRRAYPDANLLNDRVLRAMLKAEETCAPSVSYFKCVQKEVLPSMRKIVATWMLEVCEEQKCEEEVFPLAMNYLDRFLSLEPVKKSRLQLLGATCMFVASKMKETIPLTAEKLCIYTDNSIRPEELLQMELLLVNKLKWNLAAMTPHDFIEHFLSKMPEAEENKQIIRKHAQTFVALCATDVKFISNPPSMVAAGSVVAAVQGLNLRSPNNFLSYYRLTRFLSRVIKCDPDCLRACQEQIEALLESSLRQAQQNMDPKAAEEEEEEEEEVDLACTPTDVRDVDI
Sequence of KIT(V559D) (P10721 whole entry V559D): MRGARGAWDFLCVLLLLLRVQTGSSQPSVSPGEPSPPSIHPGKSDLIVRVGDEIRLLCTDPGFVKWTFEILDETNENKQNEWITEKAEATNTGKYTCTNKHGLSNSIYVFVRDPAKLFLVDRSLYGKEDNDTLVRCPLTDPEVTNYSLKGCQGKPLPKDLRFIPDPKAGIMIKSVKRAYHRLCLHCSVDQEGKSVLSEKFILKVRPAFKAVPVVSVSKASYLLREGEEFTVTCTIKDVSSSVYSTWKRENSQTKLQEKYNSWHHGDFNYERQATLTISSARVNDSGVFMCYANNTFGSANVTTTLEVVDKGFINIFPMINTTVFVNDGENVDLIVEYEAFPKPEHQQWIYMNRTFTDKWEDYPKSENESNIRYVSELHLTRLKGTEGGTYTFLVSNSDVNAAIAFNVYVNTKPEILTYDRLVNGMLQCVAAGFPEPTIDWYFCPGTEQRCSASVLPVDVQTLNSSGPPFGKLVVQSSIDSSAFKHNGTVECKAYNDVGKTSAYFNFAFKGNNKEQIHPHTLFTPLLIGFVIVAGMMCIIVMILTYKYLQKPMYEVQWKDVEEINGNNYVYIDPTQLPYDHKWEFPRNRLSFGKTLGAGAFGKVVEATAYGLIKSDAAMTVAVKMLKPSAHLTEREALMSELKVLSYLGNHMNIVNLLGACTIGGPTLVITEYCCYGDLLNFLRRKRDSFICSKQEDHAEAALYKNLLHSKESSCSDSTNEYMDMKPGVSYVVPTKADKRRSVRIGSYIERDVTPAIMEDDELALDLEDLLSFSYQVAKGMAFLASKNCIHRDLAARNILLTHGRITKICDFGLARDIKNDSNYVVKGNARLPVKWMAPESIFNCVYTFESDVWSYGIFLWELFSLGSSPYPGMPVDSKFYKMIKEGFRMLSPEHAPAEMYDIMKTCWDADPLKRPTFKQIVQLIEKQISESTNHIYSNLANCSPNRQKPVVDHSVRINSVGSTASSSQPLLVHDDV
Sequence of BRSK2 (Q8IWQ3 whole entry): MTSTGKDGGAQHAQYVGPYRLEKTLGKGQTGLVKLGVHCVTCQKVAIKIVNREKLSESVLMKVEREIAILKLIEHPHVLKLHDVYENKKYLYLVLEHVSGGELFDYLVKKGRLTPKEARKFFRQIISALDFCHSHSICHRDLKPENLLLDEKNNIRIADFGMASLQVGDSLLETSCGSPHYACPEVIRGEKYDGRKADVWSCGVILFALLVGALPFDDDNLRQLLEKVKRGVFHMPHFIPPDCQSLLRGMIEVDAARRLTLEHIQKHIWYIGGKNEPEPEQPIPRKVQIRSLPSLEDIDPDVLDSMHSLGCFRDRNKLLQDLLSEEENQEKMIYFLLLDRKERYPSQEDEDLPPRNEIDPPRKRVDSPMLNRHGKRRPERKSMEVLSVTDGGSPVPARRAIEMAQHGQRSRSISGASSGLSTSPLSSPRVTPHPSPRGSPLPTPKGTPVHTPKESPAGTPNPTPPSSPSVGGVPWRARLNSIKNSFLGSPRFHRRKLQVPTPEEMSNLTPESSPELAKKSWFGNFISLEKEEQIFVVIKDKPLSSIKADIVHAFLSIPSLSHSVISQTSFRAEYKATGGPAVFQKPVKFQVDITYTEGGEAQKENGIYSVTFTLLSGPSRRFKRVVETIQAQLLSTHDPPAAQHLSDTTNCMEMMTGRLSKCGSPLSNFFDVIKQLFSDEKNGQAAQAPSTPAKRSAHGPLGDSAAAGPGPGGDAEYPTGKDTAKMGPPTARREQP
T9 sequence (P61075 whole entry): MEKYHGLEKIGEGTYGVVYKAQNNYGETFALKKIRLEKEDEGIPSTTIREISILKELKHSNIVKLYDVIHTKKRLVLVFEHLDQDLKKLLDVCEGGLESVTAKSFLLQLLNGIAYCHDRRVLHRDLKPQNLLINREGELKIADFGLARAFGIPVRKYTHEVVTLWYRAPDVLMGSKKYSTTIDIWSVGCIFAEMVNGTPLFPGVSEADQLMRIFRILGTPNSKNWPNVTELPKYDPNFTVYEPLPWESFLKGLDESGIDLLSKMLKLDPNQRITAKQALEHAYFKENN

Row | Structure (SMILES) | remaining binding at 10 µM (KIT(V559D)) | remaining binding at 10 µM [1] | remaining binding at 10 µM (CSNK2A1) | remaining binding at 10 µM (CDC2L5) | remaining binding at 10 µM [2] | remaining binding at 10 µM (FYN) | remaining binding at 10 µM (ABL1-phosphorylated) | remaining binding at 10 µM [3] | remaining binding at 10 µM (WEE1) | remaining binding at 10 µM (CDK4-cyclinD1) | remaining binding at 10 µM (CLK1) | remaining binding at 10 µM (ACVR1) | remaining binding at 10 µM (MEK4) | remaining binding at 10 µM (PLK4) | remaining binding at 10 µM (SGK3) | remaining binding at 10 µM (EGFR(L747-T751del,Sins)) | remaining binding at 10 µM (NDR2) | remaining binding at 10 µM (YANK1) | remaining binding at 10 µM (BRSK2) | remaining binding at 10 µM (PFPK5(P.falciparum)) | other results
1 | COc1ccc(-c2cnccc2-c2cnc(NC(=O)C(C)C)s2)c(C(F)(F)F)c1 [CRT0105446, N-{5-[3-(4-Methoxy-2-trifluoromethyl-phenyl)-pyridin-4-yl]-hiazol-2-yl}-isobutyramide] | 39% | 89% | 95% | 14% | 92% | 99% | 77% | 92% | 87% | 20% | 85% | 100% | 82% | 89% | 95% | 100% | 82% | 69% | 59% | 100% | remaining binding at 10 µM (TTK): 32%; remaining binding at 10 µM (CTK): 100%
2 | Cc1ccc(-c2cnccc2-c2cnc(Nc3ccc(O)cc3)s2)c(Cl)c1 [CRT0105950, 4-{5-[3-(2-Chloro-4-methyl-phenyl)-pyridin-4-yl]-thiazol-2-ylamino}-phenol] | 0.75% | 74% | 60% | 26% | 86% | 49% | 70% | 66% | 48% | 3.7% | 0.4% | 52% | 1.8% | 43% | 72% | 68% | 80% | 88% | 33% | 84% | remaining binding at 10 µM (TTK): 1.7%; remaining binding at 10 µM (CTK): 100%
